Measured values from ChEMBL document CHEMBL1147687, “Identification and characterization of amino-piperidinequinolones and quinazolinones as MCHr1 antagonists” (Bioorg Med Chem Lett, 2006).
pIC50, pKi: −log10 of the molar value.

Legend:
[1] = biological target: T1, Melanin-concentrating hormone receptor 1 (Homo sapiens, UniProt Q99705); test: Inhibition of MCH-mediated calcium release in whole IMR32 cells by FLIPR; assay type: functional, cell-based, IMR-32
[2] = biological target: Voltage-gated inwardly rectifying potassium channel KCNH2 (Homo sapiens, UniProt Q12809); test: Binding affinity to hERG stably transfected in HEK293 cells; assay type: cell-based
[3] = biological target: T1, Melanin-concentrating hormone receptor 1; test: Displacement of [125I]MCH from MCHr1 expressed in IMR32 cells; assay type: cell-based, IMR-32
[4] = Cmax in DIO mouse brain at 10 mg/kg; assay type: ADME, organism-based; design: dose 10 mg/kg
[5] = AUC in DIO mouse plasma at 10 mg/kg; assay type: ADME, organism-based; design: dose 10 mg/kg
[6] = Brain to plasma AUC ratio in DIO mouse at 10 mg/kg; assay type: ADME, organism-based; design: dose 10 mg/kg; conditions: read-out: Ratio AUC
[7] = Half life in DIO mouse brain at 10 mg/kg; assay type: ADME, organism-based; design: dose 10 mg/kg
[8] = Plasma half life in DIO mouse at 10 mg/kg; assay type: ADME, organism-based; design: dose 10 mg/kg
[9] = AUC in DIO mouse brain at 10 mg/kg; assay type: ADME, organism-based; design: dose 10 mg/kg
[10] = Cmax in DIO mouse plasma at 10 mg/kg; assay type: ADME, organism-based; design: dose 10 mg/kg

Chain of Voltage-gated inwardly rectifying potassium channel KCNH2 (Q12809 whole entry): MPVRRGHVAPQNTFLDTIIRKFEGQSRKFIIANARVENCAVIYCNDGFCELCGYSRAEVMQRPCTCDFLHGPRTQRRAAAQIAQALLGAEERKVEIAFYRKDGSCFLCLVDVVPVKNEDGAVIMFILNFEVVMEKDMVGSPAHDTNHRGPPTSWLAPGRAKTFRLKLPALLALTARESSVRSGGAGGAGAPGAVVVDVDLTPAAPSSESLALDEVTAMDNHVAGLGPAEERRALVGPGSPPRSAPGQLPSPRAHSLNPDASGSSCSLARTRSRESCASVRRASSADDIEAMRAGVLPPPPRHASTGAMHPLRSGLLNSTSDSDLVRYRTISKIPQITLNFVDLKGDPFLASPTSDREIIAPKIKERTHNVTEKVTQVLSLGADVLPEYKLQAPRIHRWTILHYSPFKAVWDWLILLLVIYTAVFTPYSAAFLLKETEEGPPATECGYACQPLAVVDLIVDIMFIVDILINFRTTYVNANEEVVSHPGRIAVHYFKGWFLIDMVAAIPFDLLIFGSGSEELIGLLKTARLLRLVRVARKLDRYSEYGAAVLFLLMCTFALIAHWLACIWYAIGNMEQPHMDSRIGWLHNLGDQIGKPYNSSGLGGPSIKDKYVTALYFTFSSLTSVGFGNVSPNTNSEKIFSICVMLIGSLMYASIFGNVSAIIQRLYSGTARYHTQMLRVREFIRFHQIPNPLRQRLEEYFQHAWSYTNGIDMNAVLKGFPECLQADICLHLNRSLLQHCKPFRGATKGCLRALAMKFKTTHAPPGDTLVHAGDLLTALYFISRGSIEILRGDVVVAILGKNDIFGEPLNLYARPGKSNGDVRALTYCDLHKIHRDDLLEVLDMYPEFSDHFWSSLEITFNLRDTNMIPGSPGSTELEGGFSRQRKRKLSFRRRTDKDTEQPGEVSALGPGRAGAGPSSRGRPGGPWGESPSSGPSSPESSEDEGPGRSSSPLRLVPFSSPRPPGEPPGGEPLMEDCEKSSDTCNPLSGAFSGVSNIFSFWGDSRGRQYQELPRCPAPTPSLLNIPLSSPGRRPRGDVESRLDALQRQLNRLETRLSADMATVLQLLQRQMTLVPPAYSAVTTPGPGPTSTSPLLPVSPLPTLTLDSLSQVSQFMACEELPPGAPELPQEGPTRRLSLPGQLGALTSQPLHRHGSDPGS
T1 sequence (Q99705 whole entry): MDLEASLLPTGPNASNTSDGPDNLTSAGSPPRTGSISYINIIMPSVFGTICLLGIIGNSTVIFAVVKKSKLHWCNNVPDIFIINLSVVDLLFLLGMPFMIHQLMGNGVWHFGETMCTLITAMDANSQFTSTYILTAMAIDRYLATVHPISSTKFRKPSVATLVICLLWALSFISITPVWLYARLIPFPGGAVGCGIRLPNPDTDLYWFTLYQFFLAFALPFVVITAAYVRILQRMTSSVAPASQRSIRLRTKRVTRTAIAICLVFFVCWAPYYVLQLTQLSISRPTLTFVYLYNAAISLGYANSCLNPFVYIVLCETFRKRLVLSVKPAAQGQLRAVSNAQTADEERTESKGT

Row | SMILES | pIC50 [1] | pKi [2] | pIC50 [3] | Cmax [4] [ng/mL] | AUC [5] [ng·h/mL] | Kp [6] | half-life [7] [h] | half-life [8] [h] | AUC [9] [ng·h/mL] | Cmax [10] [ng/mL]
1 | O=c1nc(NC2CCN(Cc3ccc4ccccc4c3)CC2)c2cc(Cl)ccc2n1CC(F)(F)F | 7.21 | 6.82 | 8.30 |  |  |  |  |  |  | 
2 | O=c1nc(NC2CCN(Cc3ccc4c(c3)OCO4)CC2)c2cc(Cl)ccc2n1CC(F)(F)F | 7.54 | 6.35 | 8.70 |  |  |  |  |  |  | 
3 | O=c1nc(NC2CC3CCC(C2)N3Cc2ccc3c(c2)OCO3)c2cc(Cl)ccc2n1CC(F)(F)F (stereo not drawn) | 7.51 | 6.92 | 8.40 |  |  |  |  |  |  | 
4 | COC(=O)c1c(NC2CCN(Cc3ccc4c(c3)OCO4)CC2)c2cc(Cl)ccc2n(C)c1=O | 6.34 | 5.84 | 7.01 |  |  |  |  |  |  | 
5 | CCCCCn1c(=O)nc(NC2CCN(Cc3ccc4c(c3)OCO4)CC2)c2cc(Cl)ccc21 | 7.30 | 6.87 | 7.92 |  |  |  |  |  |  | 
6 | Cn1c(=O)cc(NC2CCN(Cc3ccc4c(c3)OCO4)CC2)c2cc(OC(F)F)ccc21 | 7.47 | < 5.70 | 8.30 |  |  |  |  |  |  | 
7 | O=c1cc(NC2CCN(Cc3ccc4c(c3)OCO4)CC2)c2cc(Cl)ccc2n1Cc1ccccn1 | 7.70 | 6.26 | 8.92 |  |  |  |  |  |  | 
8 | Cn1c(=O)cc(NC2CCN(Cc3ccc4ccccc4c3)CC2)c2cc(Cl)ccc21 | 7.00 | 6.67 | 8.30 |  |  |  |  |  |  | 
9 | Cn1c(=O)c(C#N)c(NC2CCN(Cc3ccc4ccccc4c3)CC2)c2cc(Cl)ccc21 | 6.71 | < 5.70 | 7.92 |  |  |  |  |  |  | 
10 | Cn1c(=O)nc(NC2CCN(Cc3ccc4ccccc4c3)CC2)c2cc(Cl)ccc21 | 7.14 | 6.80 | 8.15 |  |  |  |  |  |  | 
11 | COc1ccc2c(c1)c(NC1CCN(Cc3ccc4c(c3)OCO4)CC1)cc(=O)n2C | 7.70 | 6.11 | 8.52 |  |  |  |  |  |  | 
12 | Cn1c(=O)nc(NC2CCN(Cc3ccc4ncccc4c3)CC2)c2cc(Cl)ccc21 | 7.18 |  | 7.92 |  |  |  |  |  |  | 
13 | Cn1c(=O)nc(NC2CCN(Cc3ccc4c(c3)OCO4)CC2)c2cc(Cl)ccc21 | 7.21 | 6.82 | 8.30 | 230 | 5100 | 0.13 | 1.9 | 1.6 | 650 | 2200
14 | O=c1cc(NC2CCN(Cc3ccc4c(c3)OCO4)CC2)c2cc(Cl)ccc2[nH]1 | 7.59 |  | 8.40 |  |  |  |  |  |  | 
15 | Cn1c(=O)c(C#N)c(NC2CCN(Cc3ccc4c(c3)OCO4)CC2)c2cc(Cl)ccc21 | 7.16 |  | 7.62 | 160 | 5900 | 0.11 | 2 | 1.9 | 620 | 1600
16 | O=c1cc(NC2CCN(Cc3ccc4c(c3)OCO4)CC2)c2cc(Cl)ccc2n1Cc1ccncc1 | 7.54 | 6.45 | 8.96 | 200 | 2100 | 0.29 | 2.5 | 2.3 | 730 | 680
17 | Cn1c(=O)cc(NC2CCN(Cc3ccc4c(c3)OCO4)CC2)c2cc(OC(F)(F)F)ccc21 | 6.98 | 5.74 | 7.47 |  |  |  |  |  |  | 
18 | O=c1cc(NC2CCN(Cc3ccc4ccccc4c3)CC2)c2cc(Cl)ccc2n1Cc1ccccn1 | 7.26 | 7.06 | 9.05 |  |  |  |  |  |  | 
19 | Cn1c(=O)cc(NC2CCN(C/C=C/c3ccccc3)CC2)c2cc(Cl)ccc21 | 7.06 | 7.52 | 8.00 |  |  |  |  |  |  | 
20 | Cn1c(=O)c(C(=O)N2CCCC2)c(NC2CCN(Cc3ccc4c(c3)OCO4)CC2)c2cc(Cl)ccc21 | 7.28 | < 5.70 | 7.80 |  |  |  |  |  |  | 
21 | N#Cc1c(NC2CCN(Cc3ccc4c(c3)OCO4)CC2)c2cc(Cl)ccc2[nH]c1=O | 7.70 | 6.38 | 7.82 |  |  |  |  |  |  | 
22 | O=c1cc(NC2CCN(Cc3ccc4c(c3)OCO4)CC2)c2cc(Cl)ccc2n1Cc1ccccc1 | 7.38 | 6.55 | 9.10 |  |  |  |  |  |  | 
23 | Cn1c(=O)nc(NC2CC3CCC(C2)N3Cc2ccc3c(c2)OCO3)c2cc(Cl)ccc21 (stereo in doubt; 4g) | 7.28 |  | 8.05 |  |  |  |  |  |  | 
24 | Cn1c(=O)nc(NC2CC3CCC(C2)N3Cc2ccc3c(c2)OCO3)c2cc(Cl)ccc21 (stereo in doubt; 4i) | 6.87 |  | 7.17 |  |  |  |  |  |  | 
